Test results published in patent US8012944B2, “Method for treating cancer using IAP antisense oligomer and chemotherapeutic agent” (Pharmascience Inc., priority 2003, dated 2011).
Oligonucleotides are written 5' to 3', each unit as a sugar letter and its base; * is a phosphorothioate linkage, no mark a phosphodiester; rarer units and linkages stand in square brackets, end groups in braces. Plain capitals give the bases only. d = 2'-deoxy (DNA)

How the values were obtained:
[1] = test system: subcutaneous H460 human non-small-cell lung tumor xenografts; experiment: Systemic (i.p.) oligonucleotides with or without vinorelbine in H460 xenografts; format: in vivo, SCID-RAG2 mice; details: for antitumor efficacy on H460 xenografts (in words): systemic, oligonucleotide 15 mg/kg i.p., VNB 5 or 10 mg/kg i.v.
Protocol: (§1) Initial systemic PS-oligonucleotide studies were designed without any chemotherapeutic agents. SCID-RAG2 mice were inoculated with H460 human lung carcinoma cells (s.c. shoulder injection of 10^6 cells) and treatments with G4 and F3 AS PS-oligonucleotides, as well as a scrambled control, were initiated three days after tumor inoculation. Nucleobase oligomer injections were administered i.p. at 12.5 mg/kg three times a week for three weeks. At the end of the treatment period, mean tumor sizes in the groups treated with either G4 or F3 AS oligonucleotides were ˜50% smaller than in the group treated with a scrambled control oligonucleotides (FIG. 15). The same treatment protocol was tested on female SCID-RAG2 mice inoculated orthotopically with MDA-MB-435/LCC6 human breast carcinoma cells. Two weeks after the last treatment (day 35) tumor volumes of mice treated with F3, C5 or G4 AS oligonucleotides were 70%, 60%, and 45%, respectively, smaller than vehicle controls (FIG. 16).
We conducted additional examination of the antitumor effects of G4 AS oligonucleotides in SCID-RAG2 mice bearing xenografts of H460 human non-small-cell lung tumors implanted subcutaneously. Saline-treated control tumors grew reproducibly to a size of 0.75 cm^3 within approximately 24 days (FIG. 17). Oligonucleotide treatments were initiated three days after tumor cell inoculation. G4 AS oligonucleotides (5 to 15 mg/kg) were administered using a treatment schedule of i.p. injections given once a day on days 3-7, 10-14, and 17-21. The treatment with 5 or 15 mg/kg G4 AS oligonucleotides greatly delayed tumor growth: on day 24 mean tumor sizes were 0.75, 0.45 and 0.29 cm^3 in control, 5 and 15 mg/kg treated groups, respectively (FIG. 18A). There was a dose-dependent inhibition of tumor growth. […] A dose of 15 mg/kg was selected for the future combination treatment regimens with anticancer drugs.
The human non-small cell lung cancer cell line (large cell type) NCI-H460 (H460) was obtained from ATCC and maintained in RPMI 1640 supplemented with 10% FCS at 37° C. in a humidified atmosphere containing 5% CO2. Cells were used in exponential growth phase, up to a maximum of 25 in vitro passages. Male SCID-RAG2 mice (7-9 weeks old, 23-26 g) were obtained from British Columbia Cancer Agency Joint Animal Facility breeding colony and kept in aseptic environments. A tumor model of NCI-H460 cells in SCID-RAG2 mice was established by subcutaneous implantation of 1×10^6 NCI-H460 cells on the back of mice.
(§2) Efficacy experiments were conducted in male RAG2 immunodeficient mice bearing NCI-H460 tumours or female RAG2 mice bearing LCC6 tumors. Treatments were commenced on day 3 after tumor inoculation. Saline (controls), G4 AS oligonucleotides (5 or 15 mg/kg), or G4 SC oligonucleotides (5 or 15 mg/kg) were administered i.p. daily for five doses a week over a three week regimen. Vinorelbine (VNB, 5 or 10 mg/kg) was administered i.v. via the tail vein, either alone or in combination with oligonucleotides, at day 3, 7, 11 and 17 after tumor inoculation. When oligonucleotides were administered in combination with VNB, the drug treatment was performed four hours after ODN treatment.
(§3) Mice were observed daily. Body weight measurements and signs of stress (e.g., lethargy, ruffled coat, ataxia) were used to detect possible toxicities. Animals with ulcerated tumor, or tumor volumes of 1 cm^3 or greater were killed. Digital caliper measurements of tumors were converted into mean tumor size (cm^3) using the formula: ½[length (cm)]×[width (cm)]^2. An average tumor size per mouse was used to calculate the group mean tumor size±SE (n=6 mice) from at least two independent experiments per group.

[2] = mouse, in vivo
Excerpt: as §3

XIAP protein [3] = experiment: XIAP protein knock-down in H460 cells (western blot, densitometry); format: cell-based, human
Protocol: FIGS. 3 and 4 are graphs showing the effects of 4×4 mixed backbone (MBO) FG8 or E12 oligonucleotides in amounts of 31 nM (FIG. 3) or 63 nM (FIG. 4). H460 lung carcinoma cells were transfected for 18 hours on one, two, or three consecutive days using 125 nM MBOs and Lipofectamine 2000. Samples for western analysis were harvested at the indicated time. Scanning densitometry was performed, and XIAP protein levels were normalized to GAPDH and compared to a mock control set to 100%. The indicated percentages express % XIAP protein knockdown versus specific scrambled controls.
(§4) One day prior to transfection, H460 cells were plated in 6- or 96-well tissue culture plates. Phosphorothioate antisense oligonucleotides were delivered into cells with Lipofectamine 2000 (Life Technologies) in the form of liposome-oligonucleotide complexes. Following a 4.5 or 6 h transfection, the transfection medium was replaced with RPMI medium containing 10% FBS, and the cells incubated for another 24 or 48 h.
(§5) The cells or tumor tissue samples were lysed with ice-cold lysis buffer (50 mM Tris, 150 mM NaCl, 2.5 mM EDTA, 0.1% SDS, 0.5% sodium deoxycholate, 1% NP-40, 0.02% sodium azide) containing protease inhibitors (Complete-Mini protease inhibitor tablets; Boehringer Mannheim GmBH, Mannheim, Germany). After incubation for 30 min on ice, samples were centrifuged at 10,000 rpm for 15 min, and stored at −20° C. Protein content in the lysed extracts was determined using a detergent-compatible Bio-Rad assay (Bio-Rad Labs, Hercules, Calif.). Equal amounts of protein (40 μg/lane) were separated on 12% SDS-polyacrylamide gels or 4-15% gradient SDS-polyacrylamide pre-made gels (Bio-Rad) and transferred to nitrocellulose membranes. Primary antibodies against XIAP, Bcl-2 (DAKO, Glostrup, Denmark), Bax (Sigma, St. Louis, Mo.), β-actin (Sigma), caspase-3 (BD PharMingen, San Diego, Calif.), and PARP (BD PharMingen) were used. The secondary antibody was the appropriate horseradish-conjugated anti-mouse or anti-rabbit IgG (Promega, Madison, Wis.). Proteins were detected by enhanced chemiluminescence (ECL; Amersham Pharmacia Biotech, Buckinghamshire, England) and visualized after exposure to Kodak autoradiography film. Scanning densitometry (Molecular Dynamics, Sunnyvale, Calif.) was performed to quantify band intensities by volume/area integration. The amount of XIAP, caspase-3, Bcl-2 and Bax in cells was normalized to their respective lane β-actin levels, upon stripping and reprobing.

pro-caspase-3, PARP = experiment: Pro-caspase-3 and PARP protein in H460 cells (western blot); format: cell-based, human; details: 1.2 μM
Protocol: as §4, §5

Bcl-2 and Bax = experiment: Bcl-2:Bax ratio in H460 cells (western blot); format: cell-based, human; details: 1.2 μM
Protocol: FIGS. 11A and 11B are schematic illustrations showing XIAP oligonucleotide-mediated effects on caspase activation. The effect of XIAP oligonucleotides F3, G4, or C5, or their respective RP and SC ODN controls at 1.2 μM on the expression of pro-caspase-3, PARP (both full length (116 kDa) and processed (85 kDa)) (FIG. 10A) and Bcl-2 and Bax protein levels (FIG. 10B) in transfected H460 cells compared to control is shown. Proteins expression was analyzed by western blotting. Bcl-2 and Bax protein levels were normalized to cellular actin levels and quantified by densitometry. […]
The cells or tumor tissue samples were lysed with ice-cold lysis buffer (50 mM Tris, 150 mM NaCl, 2.5 mM EDTA, 0.1% SDS, 0.5% sodium deoxycholate, 1% NP-40, 0.02% sodium azide) containing protease inhibitors (Complete-Mini protease inhibitor tablets; Boehringer Mannheim GmBH, Mannheim, Germany). […] Protein content in the lysed extracts was determined using a detergent-compatible Bio-Rad assay (Bio-Rad Labs, Hercules, Calif.). […] Proteins were detected by enhanced chemiluminescence (ECL; Amersham Pharmacia Biotech, Buckinghamshire, England) and visualized after exposure to Kodak autoradiography film. Scanning densitometry (Molecular Dynamics, Sunnyvale, Calif.) was performed to quantify band intensities by volume/area integration. […]

[4] = test system: MDA-MB-435/LCC6 human breast carcinoma xenografts; experiment: Systemic (i.p.) PS-oligonucleotides in LCC6 breast carcinoma xenografts; format: in vivo, female SCID-RAG2 mice; details: 12.5 mg/kg i.p.; day 35, two weeks after the last treatment
Protocol: as §1, §2

XIAP RNA = XIAP RNA knock-down in T24 cells (TaqMan quantitative PCR); format: cell-based, human
In short: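 T24 bladder carcinoma cells (1.5×10^4/well) cultured 24 h in antibiotic-free McCoy's medium, then transfected with antisense oligonucleotides using Lipofectamine-based conditions optimized on survivin knock-down. XIAP mRNA measured by TaqMan RT-qPCR, quantified relative to GAPDH by the comparative Ct method.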

XIAP protein [5] = experiment: XIAP protein knock-down in T24 cells (XIAP ELISA, relative to total protein); format: cell-based, human
In short: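 T24 bladder carcinoma cells transfected with antisense oligonucleotides using Lipofectamine plus in serum-free, antibiotic-free McCoy's medium for three hours, then serum added. XIAP protein measured by colorimetric sandwich ELISA on day 4, normalized to total cellular protein and compared with mock transfection.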

XIAP mRNA = XIAP mRNA knock-down in H460 cells (real-time RT-PCR / TaqMan); format: cell-based, human
In short: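 NCI-H460 cells transfected with phosphorothioate antisense oligonucleotides via Lipofectamine 2000; RNA isolated after 6 h treatment. XIAP mRNA quantified by one-step TaqMan real-time RT-PCR, comparative Ct (threshold 30× baseline SD), normalized to GAPDH and expressed relative to untreated control cells.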

T24 cells = experiment: Visual inspection of T24 cell morphology after transfection; format: cell-based, human; details: twenty hours after transfection
Excerpt: The occurrence of cytoxicity induced by oligonucleotide E4 was examined by visually inspecting T24 cells that were left untreated, mock transfected, or transfected with E4, E4 scrambled, E4 reverse polarity, or E4 mismatched oligonucleotides. Twenty hours after transfection, the cells were examined for morphology (FIG. 5D).

H460 cells [6] = experiment: Apoptotic flow cytometric assay (PI staining, hypo-diploid DNA content); format: cell-based, human; details: 1.2 μM, untreated control 16.6%
Protocol: Cells were treated with liposome-oligonucleotide complexes for 4.5 h, and incubated for another 48 h in the medium without transfection reagent at 37° C. Following incubation, cells were harvested, washed twice with sample buffer (0.5% glucose in PBS without Ca^++ and Mg^++), and fixed in cold 70% ethanol at 4° C. for at least 18 hrs. Samples were centrifuged at 3000 rpm for 10 min, then resuspended in sample buffer containing 50 μg/ml propidium iodide (PI) and 400 U/ml RNase A. Samples were incubated for 30 min at room temperature and 30 min on ice, followed by flow cytometry analysis. EXPO Software (Applied Cytometry Systems, Sacramento, Calif.) was used to generate histograms, which were used to determine the cell cycle phase distribution after debris exclusion. The Sub G1/G0 cell fraction was considered as representative for apoptotic cells.

H460 cells [7] = experiment: Nuclear morphology (DAPI staining); format: cell-based, human; details: 1.2 μM
Protocol: Cells were treated with liposome-oligonucleotde complexes for 4.5 h, and incubated for another 48 h at 37° C. in the medium without transfection reagent or oligonucleotides. Cells were harvested and stained with 0.10 μg/ml DAP1 (4′, 6-diamidino-2-2-phenylindole) for 30 min at room temperature. Cells were placed on a glass slide, cytospun, and viewed with a Leica microscope and 40× objective lens under UV fluorescent illumination. Digital images were captured using Imagedatabase V. 4.01 Software (Leica, Germany).

H460 cells [8] = experiment: H460 cell growth, viability or death (MTT assay); format: cell-based, human; details: 1.2 μM
Protocol: Growth inhibition of […] cells was determined by the colorimetric MTT cell viability/proliferation assay. In brief, cells were treated with liposome-oligonucleotide complexes for 4.5 h, then incubated for another 48 h at 37° C. in medium without transfection reagent or oligonucleotides in the presence or absence of anticancer drugs. MTT (25 μg/well) was added to each well, and the plates incubated for 3 h at 37° C. Following the incubation step, the colored formazan product was dissolved by the addition of 200 μl DMSO. Plates were read using the microtiter plate reader (Dynex Technologies Inc., Chantilly, Va.) at a wavelength of 570 nm. The percentage of surviving cells in wells treated with oligonucleotides was normalized to untreated controls. All assays were performed in triplicate.

## CCC1=C[C@@H]2CN(C1)Cc1c([nH]c3ccccc13)[C@@](C(=O)OC)(c1cc3c(cc1OC)N(C)[C@H]1[C@@](O)(C(=O)OC)[C@H](OC(C)=O)[C@]4(CC)C=CCN5CC[C@]31[C@@H]54)C2 [VNB, vinorelbine, reference compound]
[1]; day 29, VNB 5 mg/kg, oligonucleotides 15 mg/kg
  average tumor size: 0.59±0.04 cm^3
[1]
  antitumor efficacy on H460 xenografts (in words): significant tumor growth suppression
[2]
  signs of toxicity in mice: without showing significant signs of undesirable toxicity

## ATCTTCTCTTGAAAATAGG (DNA, all phosphorothioate, methylation of C not given here) [F3 AS]
XIAP protein [3]; 1.2 μM, 24 h after the end of transfection
  reduction of XIAP protein level: 50%
pro-caspase-3, PARP
  reduction of pro-caspase-3 protein levels compared to untreated control: 40%
Bcl-2 and Bax
  ratio of Bcl-2:Bax: unchanged
[1]; PS-oligonucleotides 12.5 mg/kg i.p. three times a week for three weeks, end of treatment
  mean tumor size smaller than scrambled control group: ~50%
[4]
  tumor volumes smaller than vehicle controls: 70%

## CGCACGGTATCTCCTTCAC (antisense; chemistry not fully specified) [Code E4]
XIAP RNA
  XIAP down-regulation T24 RNA: 47%
XIAP protein [5]
  XIAP down-regulation T24 protein: 34%
XIAP protein [5]; first screen of the library
  XIAP protein levels relative to total protein, compared to mock transfection (in words): some decrease
XIAP mRNA
  XIAP down-regulation H460 RNA: 51%
T24 cells
  signs of toxicity (cell morphology): showed signs of toxicity

## GGCTCTTTGCCCACTGAAT (dG*dG*dC*dT*dC*dT*dT*dT*dG*dC*dC*dC*dA*dC*dT*dG*dA*dA*dT) [G4 SC, reference compound]
XIAP protein [3]
  effect on XIAP protein levels (in words): little XIAP loss
pro-caspase-3, PARP
  effect on caspase-3 or PARP protein expression: did not have any effect
H460 cells [6]
  hypo-diploid DNA content of cells: 22.1%
H460 cells [7]
  nuclear morphological changes characteristic of apoptosis: Few cells showed these morphological changes
H460 cells [8]; H460 cells
  cell death: less than 10%
H460 cells [8]; MTT, 48 hours after transfection
  reduction of H460 cell growth relative to untreated control: less than 10%
[1]; 15 mg/kg, day 21 or 24
  tumors reduced in size, % of control tumors: 24%
[1]
  antitumor efficacy on H460 xenografts (in words): no therapeutic activity
